# Several values for one entry are separate records, joined by “and”; a condition that tells them apart may be missing. Equal values may be shown once. Read-outs that look alike come from different tables or passages of the source.
# Experiments:
# influenza A/HK/68 [1] = system: influenza A/HK/68; design: species or system ICR mice; conditions: mouse, in vivo
# influenza A/HK/68 [2] = type: in vivo, BALB/c mice; conditions: mouse, in vivo
# influenza A/HK/68 [3] = system: influenza A/HK/68; design: species or system ICR mice; conditions: mouse, in vivo; remark: listed apart in the source
# TNF-α = assay: Cytokine induction in human whole blood ex vivo culture: TNF-α (ELISA); type: cell-based; conditions: 4 hr
# How it was run: (§1)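 Compounds in 10% EtOH-water added at 1:10 to human whole blood, 4 hr at 37° C with rotation; RPMI-treated controls. After PBS dilution and centrifugation, supernatant TNF-α and IL-1β measured by ELISA.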
# IL-1β = assay: Cytokine induction in human whole blood ex vivo culture: IL-1β (ELISA); type: cell-based; conditions: 4 hr
# How it was run: as §1
# [4] = Fever response in rabbits (pyrogenicity); type: in vivo; conditions: 10 ug/kg; cumulative rise ≥1.5 degree in three rabbits is considered pyrogenic
# Procedure: The AGP compounds were also evaluated for their tendency to induce a fever response in rabbits. Each compound was formulated in 10% (v/v) ethanol/water solution at 100 mg/ml, then diluted with D5W to the desired concentration. The material was injected at 3 ml/kg body weight into 3 rabbits. The rise in core temperature of the rabbits was recorded.
# E.G7 (OVA) cells = conditions: s.c. 25 μg OVA in AGP preparation, spleen cells 21 days later
# influenza A/HK/68 [5] = type: in vivo, ICR mice; conditions: mouse, in vivo
# [6] = system: hepatitis B surface antigen (HBsAg); assay: Serum anti-HBsAg antibody titers after intranasal HBsAg + AGP-AF (ELISA); type: in vivo, BALB/c mice; conditions: for Anti HBsAg Titer^−1 IgG1 / Anti HBsAg Titer^−1 IgG2a: K = 10^3
# [7] = system: hepatitis B surface antigen (HBsAg); assay: Vaginal wash anti-HBsAg antibody after intranasal HBsAg + AGP-AF; type: in vivo, BALB/c mice; conditions: 10 days after the booster immunization; intranasal HBsAg + 10 μg AGP-AF
# Excerpt: Vaginal samples were collected 10 days after the booster immunization and assayed for anti-HBsAg antibody.
# tetanus toxoid [8] = conditions: mouse, in vivo, sc
# influenza A/HK/68 [9] = conditions: mouse, in vivo
# tetanus toxoid [10] = conditions: mouse, in vivo
# [11] = system: hepatitis B surface antigen (HBsAg); assay: Anti-HBsAg antibody titer with AGP-SE (ELISA plates coated with HBsAg or p72 peptide); conditions: sera day 28 post 2°, 25 μg AGP-SE
# influenza A/HK/68 [12] = assay: Second intranasal influenza vaccine experiment with aqueous AGP and MPL formulations: vaginal, tracheal wash and serum titers, protection; type: in vivo, BABL/c mice
# [13] = day 22 post 2°, HBsAg + 10 μg AGP-AF intranasally
# [14] = serum, day 21 post 3°, intranasal HBsAg + 10 μg AGP-AF
# [15] = ELISA plates coated with p72 peptide
substance,measurement,setting,value
4-Hydroxy-(S)-2-[(R)-3-decanoyloxytetradecanoyl]butyl 2-Deoxy-4-O-phosphono-2-[(R)-3-decanoyloxytetradecanoylamino]-3-O-[(R)-3-decanoyltetradecanoyl]-β-D-glucopyranoside Triethylammonium Salt [B10],Anti-influenza Titer^−1 Total IgG,influenza A/HK/68 [1],1600
same,Percent Survival,influenza A/HK/68 [1],40%
same,Anti-influenza Titer^−1 IgG1,influenza A/HK/68 [2],400
same,Anti-influenza Titer^−1 IgG2a,influenza A/HK/68 [2],400
same,Anti-influenza Titer^−1 IgG2b,influenza A/HK/68 [2],400
same,Anti-influenza Titer^−1 Total IgG,influenza A/HK/68 [2],400
same,Percent Survival,influenza A/HK/68 [2],62.5%
same,IgG Titer-1 post 1°,influenza A/HK/68 [3],1600
same,IgG Titer-1 post 2°,influenza A/HK/68 [3],"25,600"
same,Percent Survival post 1°,influenza A/HK/68 [3],60%
same,Percent Survival post 2°,influenza A/HK/68 [3],90%
same,TNF-α,"TNF-α; Dosage 1000 ng/ml, Table 15",73 pg/mL
same,TNF-α,"TNF-α; Dosage 5000 ng/ml, Table 15",127 pg/mL
same,TNF-α,"TNF-α; Dosage 10,000 ng/ml, Table 15",207 pg/mL
same,IL-1β,"IL-1β; Dosage 1000 ng/ml, Table 15",17 pg/mL
same,IL-1β,"IL-1β; Dosage 5000 ng/ml, Table 15",61 pg/mL
same,IL-1β,"IL-1β; Dosage 10,000 ng/ml, Table 15",43 pg/mL
same,"PYROGENICITY Total Rise ° C., 3 rabbits",[4],5.8 °C
same,% Cytotoxicity,E.G7 (OVA) cells; E:T 12.5:1,38%
same,% Cytotoxicity,E.G7 (OVA) cells; E:T 25:1,56%
same,% Cytotoxicity,E.G7 (OVA) cells; E:T 50:1,65%
N-[(R)-3-decanoyloxytetradecanoyl]-O-[2-deoxy-4-O-phosphono-2-[(R)-3-decanoyloxytetradecanoylamino]-3-O-[(R)-3-decanoyloxytetradecanoyl]-β-D-glucopyranosyl]-D-serine Triethylammonium Salt [B14],Anti-influenza Titer^−1 Total IgG,influenza A/HK/68 [1],6400
same,Percent Survival,influenza A/HK/68 [1],44%
same,Anti-influenza Titer^−1 IgG1,influenza A/HK/68 [2],6400
same,Anti-influenza Titer^−1 IgG2a,influenza A/HK/68 [2],3200
same,Anti-influenza Titer^−1 IgG2b,influenza A/HK/68 [2],6400
same,Anti-influenza Titer^−1 Total IgG,influenza A/HK/68 [2],3200
same,Percent Survival,influenza A/HK/68 [2],87.5%
same,IgG Titer-1 post 1°,influenza A/HK/68 [3],800
same,IgG Titer-1 post 2°,influenza A/HK/68 [3],"51,200"
same,Percent Survival post 1°,influenza A/HK/68 [3],33%
same,Percent Survival post 2°,influenza A/HK/68 [3],70%
same,Percent Survival,influenza A/HK/68 [5],30%
same,Titer^−1 IgG1,influenza A/HK/68 [5],1600
same,Titer^−1 IgG2a,influenza A/HK/68 [5],100
same,Titer^−1 IgG2b,influenza A/HK/68 [5],400
same,Titer^−1 Total IgG,influenza A/HK/68 [5],800
same,TNF-α,"TNF-α; Dosage 500 ng/ml, Table 17",49 pg/mL
same,TNF-α,"TNF-α; Dosage 1000 ng/ml, Table 16",56 pg/mL
same,TNF-α,"TNF-α; Dosage 1000 ng/ml, Table 17",51 pg/mL
same,TNF-α,"TNF-α; Dosage 5000 ng/ml, Table 16",120 pg/mL
same,TNF-α,"TNF-α; Dosage 5000 ng/ml, Table 17",87 pg/mL
same,TNF-α,"TNF-α; Dosage 10,000 ng/ml, Table 16",249 pg/mL
same,TNF-α,"TNF-α; Dosage 10,000 ng/ml, Table 17",114 pg/mL
same,IL-1β,"IL-1β; Dosage 500 ng/ml, Table 17",19.9 pg/mL
same,IL-1β,"IL-1β; Dosage 1000 ng/ml, Table 16",46 pg/mL
same,IL-1β,"IL-1β; Dosage 1000 ng/ml, Table 17",10.0 pg/mL
same,IL-1β,"IL-1β; Dosage 5000 ng/ml, Table 16",71 pg/mL
same,IL-1β,"IL-1β; Dosage 5000 ng/ml, Table 17",19.0 pg/mL
same,IL-1β,"IL-1β; Dosage 10,000 ng/ml, Table 16",91 pg/mL
same,IL-1β,"IL-1β; Dosage 10,000 ng/ml, Table 17",24.6 pg/mL
same,% Cytotoxicity,E.G7 (OVA) cells; E:T 12.5:1,25%
same,% Cytotoxicity,E.G7 (OVA) cells; E:T 25:1,36%
same,% Cytotoxicity,E.G7 (OVA) cells; E:T 50:1,45%
4-[(R)-3-Tetradecanoyloxytetradecanoylamino]butyl 2-Deoxy-4-O-phosphono-3-O-[(R)-3-tetradecanoyoxytetradecanoyl]-2-[(R)-3-tetradecanoyloxytetradecanoylamino])-β-D-glucopyranoside Triethylammonium Salt [B22],Anti HBsAg Titer^−1 IgA,[6]; [13],"1,600"
same,Anti HBsAg Titer^−1 IgG1,[6]; [13],256K
same,Anti HBsAg Titer^−1 IgG2a,[6]; [13],64K
same,Anti HBsAg Titer^−1 IgG1,[6]; [14],500K
same,Anti HBsAg Titer^−1 IgG2a,[6]; [14],500K
same,Anti HBsAg Titer^−1 IgA,[6]; [14],"12,800"
same,Vaginal Wash Anti-HBsAg Titer^−1 IgA,[7],800
same,Vaginal Wash Anti-HBsAg Titer^−1 IgG,[7],100
same,Anti-tetanus toxoid IgG1 T/C,tetanus toxoid [8],18.4
same,Anti-tetanus toxoid IgG1 Titer,tetanus toxoid [8],"27,400"
same,Anti-tetanus toxoid IgG2a T/C,tetanus toxoid [8],345.8
same,Anti-tetanus toxoid IgG2a Titer,tetanus toxoid [8],"5,187"
same,Anti-tetanus toxoid IgG2b T/C,tetanus toxoid [8],59.6
same,Anti-tetanus toxoid IgG2b Titer,tetanus toxoid [8],"3,160"
same,Anti-tetanus toxoid IgM T/C,tetanus toxoid [8],0.8
same,Anti-tetanus toxoid IgM Titer,tetanus toxoid [8],440
same,Anti-tetanus toxoid Total Ig T/C,tetanus toxoid [8],60.0
same,Anti-tetanus toxoid Total Ig Titer,tetanus toxoid [8],"19,050"
same,Percent Survival,influenza A/HK/68 [9],40%
same,Titer−1 IgG1,influenza A/HK/68 [9],100
same,Titer−1 IgG2a,influenza A/HK/68 [9],3200
same,Titer−1 IgG2b,influenza A/HK/68 [9],200
same,Titer−1 Total IgG,influenza A/HK/68 [9],3200
same,Anti-Tetanus Toxoid Titer^−1 Fecal Extract IgG,tetanus toxoid [10],25 and 50
same,Anti-Tetanus Toxoid Titer^−1 Vaginal Wash IgG,tetanus toxoid [10],400 and 800
same,Anti-HBsAg Titer^−1 HBsAg IgG1,[11]; ELISA plates coated with HBsAg,1024K
same,Anti-HBsAg Titer^−1 HBsAg IgG2a,[11]; ELISA plates coated with HBsAg,1024K
same,Anti-HBsAg Titer^−1 p72-Peptide IgG1,[11]; [15],128K
same,Anti-HBsAg Titer^−1 p72-Peptide IgG2a,[11]; [15],128K
"3-O-deacylated monophosphoryl lipid A [MPL®, reference compound]",mucosal adjuvant activity (in words),"influenza A/HK/68 [12]; administered intranasally with influenza vaccine, vaginal and tracheal washes",act as mucosal adjuvants causing the production of IgA at two mucosal sites
N-[(R)-3-Hexanoyloxytetradecanoyl]-O-[2-deoxy-4-O-phosphono-2-[(R)-3-hexanoyloxytetradecanoylamino]-3-O-[(R)-3-hexanoyloxytetradecanoyl]-α-D-glucopyranosyl]-L-serine Triethylammonium Salt [B34],Mucosal IgA Response TW,"influenza A/HK/68 [12]; mouse, in vivo",<4.6
same,Mucosal IgA Response VW,"influenza A/HK/68 [12]; mouse, in vivo",<4.6
same,Percent Protection,"influenza A/HK/68 [12]; mouse, in vivo",0%
same,Serum IgG Titers,"influenza A/HK/68 [12]; mouse, in vivo",8.4
same,"PYROGENICITY Total Rise ° C., 3 rabbits",[4],2.8 °C
4-Hydroxy-(S)-3-[(R)-3-decanoyloxytetradecanoyl]butyl 2-Deoxy-4-O-phosphono-2-[(R)-3-decanoyloxytetradecanoylamino]-3-O-[(R)-3-decanoyltetradecanoyl]-β-D-glucopyranoside Triethylammonium Salt [B9],Anti-influenza Titer^−1 Total IgG,influenza A/HK/68 [1],6400
same,Percent Survival,influenza A/HK/68 [1],44%
same,Anti-influenza Titer^−1 IgG1,influenza A/HK/68 [2],1600
same,Anti-influenza Titer^−1 IgG2a,influenza A/HK/68 [2],3200
same,Anti-influenza Titer^−1 IgG2b,influenza A/HK/68 [2],800
same,Anti-influenza Titer^−1 Total IgG,influenza A/HK/68 [2],1600
same,Percent Survival,influenza A/HK/68 [2],87.5%
same,IgG Titer-1 post 1°,influenza A/HK/68 [3],6400
same,IgG Titer-1 post 2°,influenza A/HK/68 [3],"12,800"
same,Percent Survival post 1°,influenza A/HK/68 [3],80%
same,Percent Survival post 2°,influenza A/HK/68 [3],50%
same,TNF-α,"TNF-α; Dosage 1000 ng/ml, Table 15",145 pg/mL
same,TNF-α,"TNF-α; Dosage 5000 ng/ml, Table 15",247 pg/mL
same,TNF-α,"TNF-α; Dosage 10,000 ng/ml, Table 15",449 pg/mL
same,IL-1β,"IL-1β; Dosage 1000 ng/ml, Table 15",53 pg/mL
same,IL-1β,"IL-1β; Dosage 5000 ng/ml, Table 15",84 pg/mL
same,IL-1β,"IL-1β; Dosage 10,000 ng/ml, Table 15",96 pg/mL
same,"PYROGENICITY Total Rise ° C., 3 rabbits",[4],3.1 °C
same,% Cytotoxicity,E.G7 (OVA) cells; E:T 12.5:1,36%
same,% Cytotoxicity,E.G7 (OVA) cells; E:T 25:1,55%
same,% Cytotoxicity,E.G7 (OVA) cells; E:T 50:1,65%
3-Hydroxy-(S)-2-[(R)-3-nonanoyloxytetradecanoylamino]propyl 2-Deoxy-4-O-phosphono-2-[(R)-3-nonanoyloxytetradecanoylamino]-3-O-[(R)-3-nonanoyloxytetradecanoyl]-β-D-glucopyranoside Triethylammonium Salt [B7],Anti-influenza Titer^−1 Total IgG,influenza A/HK/68 [1],200
same,IgG Titer-1 post 1°,influenza A/HK/68 [3],3200
same,IgG Titer-1 post 2°,influenza A/HK/68 [3],">102,400"
same,Percent Survival post 1°,influenza A/HK/68 [3],60%
same,Percent Survival post 2°,influenza A/HK/68 [3],60%
same,Titer−1 IgG1,influenza A/HK/68 [5],3200
same,Titer−1 IgG2a,influenza A/HK/68 [5],100
same,Titer−1 IgG2b,influenza A/HK/68 [5],1600
same,Titer−1 Total IgG,influenza A/HK/68 [5],3200
same,"PYROGENICITY Total Rise ° C., 3 rabbits",[4],4 °C
same,% Cytotoxicity,E.G7 (OVA) cells; E:T 12.5:1,29%
same,% Cytotoxicity,E.G7 (OVA) cells; E:T 25:1,44%
same,% Cytotoxicity,E.G7 (OVA) cells; E:T 50:1,57%
